# Results: publication PMC11172478, “1,3,5-Triazine as Branching Connector for the Construction of Novel Antimicrobial Peptide Dendrimers: Synthesis and Biological Characterization” (International Journal of Molecular Sciences, 2024)
# Read-outs that look alike come from different tables or passages of the source. Starred links: 1 amine or outer side, 2 acyl side, 3 side chain; linkers in the order of their positions; H or OH if unused. Positions of bridges follow the written chain, without caps; N, C: chain ends. Non-standard residues stand in square brackets, D forms with d. Residues, ends and D or L forms follow the SMILES beside them. Chains are numbered I, II in the order given. *: point of attachment. X3 = CC(=O)NCCNc1nc(NCCNC(C)=O)nc(N([C@@H](CC(C)C)C(=O)[*:2])[*:1])n1; X4 = CC(=O)NCCNc1nc(NCCNC(C)=O)nc(Oc2ccc(C(=O)*)cc2)n1; X2 = CC[C@H](C)CCCCC(=O)*; Dab = NCC[C@H](N)C(=O)O
# Experiments:
# Assay type in all cases: cell-based
# [1] = system: E. coli ATCC 25922; conditions: ATCC 25922, 24 h
# Description: (§1) The antimicrobial activity of the dendrimers was evaluated against E. coli ATCC 25922, P. aeruginosa ATCC 27853 and S. aureus ATCC 29213 strains. The MIC values were determined by the broth microdilution method. Briefly, the different strains were grown in Muller Hinton broth cation adjusted (MHBCA) medium overnight at 37 °C with shaking at 200 rpm. The bacterial cultures were then adjusted to OD625nm of 0.08–0.1, and 5 μL of each diluted suspension was added to 96-well plates previously filled with MHBCA and serially diluted peptides. Plates were incubated for 24 h at 37 °C. Finally, the MIC was determined macroscopically, based on the visual turbidity of the wells.
# [2] = system: S. aureus ATCC 29213; conditions: ATCC 29213, 24 h
# Description: as §1
# [3] = system: P. aeruginosa ATCC 27853; conditions: ATCC 27853, 24 h
# Description: as §1
# [4] = system: P. aeruginosa P15; experiment: microbe, parasite or virus in culture
# Description: (§2) E. coli ATCC 25922, P. aeruginosa ATCC 27853, S. aureus ATCC 29213, P. aeruginosa 666 SJD (ciprofloxacin-resistant), P. aeruginosa P12, P13, P15, P16 and P17 (MDR isolates) and E. coli 7987, 5545, 8248, 13974, 7259 and 208691 (MDR isolates) from our own collection were included in the present study.
# as §1
# [5] = system: E. coli 208691; experiment: microbe, parasite or virus in culture
# Description: as §2, §1
# [6] = system: P. aeruginosa P17; experiment: microbe, parasite or virus in culture
# Description: as §2, §1
# [7] = system: E. coli 7987; experiment: microbe, parasite or virus in culture; conditions: Escherichia coli; MDR isolate E. coli 7987; read-out: MIC
# Description: as §2, §1
# [8] = system: P. aeruginosa P13; experiment: microbe, parasite or virus in culture
# Description: as §2, §1
# [9] = system: E. coli 13974; experiment: microbe, parasite or virus in culture; conditions: Escherichia coli; MDR isolate E. coli 13974; read-out: MIC
# Description: as §2, §1
# [10] = system: E. coli 8248; experiment: microbe, parasite or virus in culture; conditions: Escherichia coli; MDR isolate E. coli 8248; read-out: MIC
# Description: as §2, §1
# [11] = system: E. coli 5545; experiment: microbe, parasite or virus in culture; conditions: Escherichia coli; MDR isolate E. coli 5545; read-out: MIC
# Description: as §2, §1
# [12] = system: E. coli 7259; experiment: microbe, parasite or virus in culture; conditions: Escherichia coli; MDR isolate E. coli 7259; read-out: MIC
# Description: as §2, §1
# [13] = system: P. aeruginosa P12; experiment: microbe, parasite or virus in culture; conditions: MDR isolate P. aeruginosa P12
# Description: as §2, §1
# [14] = system: P. aeruginosa P16; experiment: microbe, parasite or virus in culture; conditions: MDR isolate P. aeruginosa P16
# Description: as §2, §1
# [15] = Pseudomonas aeruginosa, read-out: MIC
Compound,MIC E. coli ATCC 25922 [1] [µg/mL],MIC S. aureus ATCC 29213 [2] [µg/mL],MIC P. aeruginosa ATCC 27853 [3] [µg/mL],other results
"O=C(O)c1cn(C2CC2)c2cc(N3CCNCC3)c(F)cc2c1=O [Ciprofloxacin, reference compound]",–,–,–,"MIC ([4]; Pseudomonas aeruginosa, P15): 256 µg/mL; MIC ([5]; Escherichia coli, 208691): 256 µg/mL; MIC ([6]; Pseudomonas aeruginosa, P17): 256 µg/mL; MIC [7]: 32 µg/mL; MIC ([8]; Pseudomonas aeruginosa, P13): 128 µg/mL; MIC [9]: 32 µg/mL; MIC [10]: 32 µg/mL; MIC [11]: 64 µg/mL; MIC [12]: 32 µg/mL; MIC [13, 15]: 64 µg/mL; MIC [14, 15]: 64 µg/mL"
"CC[C@H](C)CCCCC(=O)N[C@@H](CCN)C(=O)N[C@H](C(=O)N[C@@H](CCN)C(=O)N[C@H]1CCNC(=O)[C@H]([C@@H](C)O)NC(=O)[C@H](CCN)NC(=O)[C@H](CCN)NC(=O)[C@H](CC(C)C)NC(=O)[C@@H](CC(C)C)NC(=O)[C@H](CCN)NC1=O)[C@@H](C)O [Colistin, reference compound] (X2-[Dab]T[Dab][Dab][Dab][dL]L[Dab][Dab]T; lactam 4-C (inferred); N-terminus assumed)",–,–,–,MIC ([4]; MDR isolate P. aeruginosa P15): >128 µg/mL; MIC ([5]; MDR isolate E. coli 208691): 0.5 µg/mL; MIC ([6]; MDR isolate P. aeruginosa P17): >8 µg/mL; MIC ([8]; MDR isolate P. aeruginosa P13): 32 µg/mL; MIC [13]: 64 µg/mL; MIC [14]: 16 µg/mL
"CC(C)C[C@H](NC(=O)[C@H](CCCCN)NC(=O)[C@H](CC(C)C)NC(=O)[C@H](CCCCN)NC(=O)[C@H](CC(C)C)NC(=O)[C@H](CCCCNC(=O)[C@H](CCCCN)NC(=O)[C@H](CC(C)C)NC(=O)[C@H](CCCCN)NC(=O)[C@H](CC(C)C)NC(=O)[C@H](CCCCN)NC(=O)[C@@H](N)CC(C)C)NC(=O)[C@H](CCCCN)NC(=O)[C@H](CC(C)C)NC(=O)[C@H](CCCCN)NC(=O)[C@H](CC(C)C)NC(=O)[C@H](CCCCN)NC(=O)[C@@H](N)CC(C)C)C(=O)N[C@@H](CCCCN)C(N)=O [F, H-[(LK)3]2-K-(LK)3-NH2] (I: H-LKLKLKKLKLKLK-NH2 / II: H-LKLKLK; amide I:7-II:C)",32,64,>64,–
"CC(C)C[C@H](NC(=O)[C@H](CCCCN)NC(=O)[C@H](CC(C)C)NC(=O)[C@H](CCCCN)NC(=O)[C@H](CC(C)C)NC(=O)[C@H](CCCCN)NC(=O)[C@H](CC(C)C)NC(=O)[C@H](CCCCN)NC(=O)[C@H](CC(C)C)NC(=O)[C@H](CCCCN)NC(=O)[C@H](CC(C)C)NC(=O)[C@H](CCCCN)NC(=O)[C@H](CC(C)C)NC(=O)[C@H](CCCCN)NC(=O)[C@H](CC(C)C)NC(=O)[C@H](CCCCN)NC(=O)[C@@H](N)CC(C)C)C(=O)N[C@@H](CCCCN)C(N)=O [G, H-(Leu-Lys)9-NH2] (H-LKLKLKLKLKLKLKLKLK-NH2)",>64,>64,>64,–

# Further lines, with some results ahead:
MIC E. coli ATCC 25922 [1] [µg/mL],MIC S. aureus ATCC 29213 [2] [µg/mL],MIC P. aeruginosa ATCC 27853 [3] [µg/mL],Compound,other results
>64,>64,>64,"CC(C)C[C@H](NC(=O)[C@H](CCCCN)NC(=O)[C@H](CC(C)C)NC(=O)[C@H](CCCCN)NC(=O)[C@@H](N)CC(C)C)C(=O)N[C@@H](CCCCN)C(N)=O [A, H-Leu-Lys-Leu-Lys-Leu-Lys-NH2] (H-LKLKLK-NH2)",–
64,>64,32,"CC(C)C[C@H](NC(=O)[C@H](Cc1ccccc1)NC(=O)CNC(=O)c1ccc(Oc2nc(NCCNC(=O)[C@H](CCCCN)NC(=O)[C@H](CC(C)C)NC(=O)[C@H](CCCCN)NC(=O)[C@H](CC(C)C)NC(=O)[C@H](CCCCN)NC(=O)[C@@H](N)CC(C)C)nc(NCCNC(=O)[C@H](CCCCN)NC(=O)[C@H](CC(C)C)NC(=O)[C@H](CCCCN)NC(=O)[C@H](CC(C)C)NC(=O)[C@H](CCCCN)NC(=O)[C@@H](N)CC(C)C)n2)cc1)C(N)=O [B, H-[(LK)3-EDA]2-TA-PHBA-GFL-NH2]",–
>64,>64,>64,"CC(=O)NCCNc1nc(NCCNC(C)=O)nc(Oc2ccc(C(=O)NCC(=O)N[C@@H](Cc3ccccc3)C(=O)N[C@@H](CC(C)C)C(N)=O)cc2)n1 [C, (Ac-EDA)2-TA-PHBA-GFL-NH2]",–
>64,>64,>64,"CC(=O)NCCNc1nc(NCCNC(C)=O)nc(Oc2ccc(C(=O)N[C@@H](CC(C)C)C(=O)N[C@@H](CCCCN)C(=O)N[C@@H](CC(C)C)C(=O)N[C@@H](CCCCN)C(=O)N[C@@H](CC(C)C)C(=O)N[C@@H](CCCCN)C(N)=O)cc2)n1 [D, (Ac-EDA)2-TA-PHBA-(LK)3-NH2] (X4-LKLKLK-NH2)",–
>64,>64,>64,"CC(=O)NCCNc1nc(NCCNC(C)=O)nc(N[C@@H](CC(C)C)C(=O)N[C@@H](CCCCN)C(=O)N[C@@H](CC(C)C)C(=O)N[C@@H](CCCCN)C(=O)N[C@@H](CC(C)C)C(=O)N[C@@H](CCCCN)C(N)=O)n1 [E, (Ac-EDA)2-TA-(LK)3-NH2] (H-[X3]KLKLK-NH2)",–
